How the values were obtained:
SK-BR-3 = assay: Inhibition of proliferation of cells SK-BR-3 (CelltiterGlo, 72 h); type: cell-based; conditions: Homo sapiens; SK-BR-3 cells, 72 h, CTG; read-out: IC50 (nM), antiproliferative activity on SK-BR-3
Method: (§1) • (1) Cell plating: first, tumor cells SK-BR-3 were cultured using a corresponding culture medium, trypsinized, centrifuged, resuspended for counting, adjusted to an appropriate concentration, and then plated on a 384-well plate. • (2) Co-incubation of the compounds and tumor cells: after the cells adhered to the wall, 100 nL of a diluted bioactive substance (test compound) was added to the cell culture plate using ECHO, the final concentration of DMSO in wells of the cell plate was 0.33%, and the incubation was performed in an incubator at 37° C. with 5% CO2 for 72 h. • (3) After the incubation was complete, 30 μL of a CTG reagent (CelltiterGlo kit) was added to each well. The culture was oscillated on a fast oscillator for 2 min, centrifuged at 1,000 rpm for 1 min, and kept away from light at room temperature for 30 min. The chemiluminescence signal value was read using an Envision instrument. • (4) Cell viability detection: IC50 was calculated using GraphPad Prism 8 software, and the IC50 of the compounds was obtained using the following nonlinear fitting formula (see Table 1):
[formula] • Y: inhibition rate; X: log value of compound concentration-,
(§2) [formula] • high-reading control wells: cells with addition of 100 nL DMSO; and • low-reading control wells: cell-free wells.

MDA-MB-468 = assay: Inhibition of proliferation of cells MDA-MB-468 (CelltiterGlo, 72 h); type: cell-based; conditions: Homo sapiens; MDA-MB-468 cells, 72 h, CTG; read-out: IC50 (nM), antiproliferative activity on MDA-MB-468
Method: as §1, with “MDA-MB-468” for “SK-BR-3”, “[…]” for “5%”, “2):” for “1):”
[formula] • Y: inhibition rate: X: log value of compound concentration;
as §2

NCI-N87 = assay: Inhibition of proliferation of cells NCI-N87 (CelltiterGlo, 72 h); type: cell-based; conditions: Homo sapiens; NCI-N87 cells, 72 h, CTG; read-out: IC50 (nM), antiproliferative activity on cells NCI-N87
Method: as §1, with “NCI-N87” for “SK-BR-3”, “[…]” for “5%”, “3):” for “1):”
[formula] • Y: inhibition rate, X: log value of compound concentration;
as §2

[1] = Pharmacokinetic test in SD rats; conditions: male, Sprague-Dawley (SD), rat, in vivo, iv, 2 mg/kg
Method: After a single intravenous injection (dose: 2 mpk) of the compounds 6-2, 11-2, 17-2, and Dxd into male SD rats (blood collection time points: 0.083 h, 0.25 h, 0.5 h, 1 h, 2 h, 4 h, 8 h, and 24 h after IV administration, totaling 8 blood collection time points), average pharmacokinetic parameters in the plasma are as shown in Table 5: […]

CYP1A2 = biological target: T1, CYP1A2 (Homo sapiens, UniProt P05177); assay: Inhibition on human hepatomicrosomes CYP1A2
T1 sequence (P05177 1-516): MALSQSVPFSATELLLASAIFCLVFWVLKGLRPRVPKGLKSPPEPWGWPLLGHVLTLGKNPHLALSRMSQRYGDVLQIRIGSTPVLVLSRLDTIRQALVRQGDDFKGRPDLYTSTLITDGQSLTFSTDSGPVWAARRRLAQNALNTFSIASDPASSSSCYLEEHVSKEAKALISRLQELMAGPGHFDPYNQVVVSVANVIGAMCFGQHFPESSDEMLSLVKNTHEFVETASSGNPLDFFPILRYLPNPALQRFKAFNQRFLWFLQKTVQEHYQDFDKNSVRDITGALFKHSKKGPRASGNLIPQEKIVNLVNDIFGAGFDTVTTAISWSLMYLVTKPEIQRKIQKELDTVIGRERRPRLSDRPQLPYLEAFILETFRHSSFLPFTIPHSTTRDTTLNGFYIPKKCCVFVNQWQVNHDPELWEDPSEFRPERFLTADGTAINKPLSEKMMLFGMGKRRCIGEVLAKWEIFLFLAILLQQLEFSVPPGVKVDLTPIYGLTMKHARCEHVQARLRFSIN

CYP2D6 = CYP2D6 (Homo sapiens, UniProt P10635); assay: Inhibition on human hepatomicrosomes CYP2D6
CYP2D6, sequence (P10635 whole entry): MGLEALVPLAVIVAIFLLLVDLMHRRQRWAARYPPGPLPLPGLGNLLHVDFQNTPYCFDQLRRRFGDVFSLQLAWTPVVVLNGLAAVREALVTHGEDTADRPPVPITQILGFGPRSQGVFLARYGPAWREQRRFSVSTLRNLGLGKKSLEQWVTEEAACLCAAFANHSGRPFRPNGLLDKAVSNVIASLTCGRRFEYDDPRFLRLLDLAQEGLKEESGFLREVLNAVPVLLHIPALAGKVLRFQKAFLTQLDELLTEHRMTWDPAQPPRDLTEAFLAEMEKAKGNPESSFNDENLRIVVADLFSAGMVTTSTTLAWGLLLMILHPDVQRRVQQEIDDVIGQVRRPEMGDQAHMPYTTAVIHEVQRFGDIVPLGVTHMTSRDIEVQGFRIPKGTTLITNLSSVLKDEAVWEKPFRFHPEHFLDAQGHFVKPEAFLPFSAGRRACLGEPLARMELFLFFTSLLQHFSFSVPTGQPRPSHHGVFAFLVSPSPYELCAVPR

Question: Which IC50 (SK-BR-3) does the source give for `CC[C@@]1(O)C(=O)OCc2c1cc1n(c2=O)Cc2c-1nc1cc(F)c(C)c3c1c2[C@@H](NC(=O)[C@@H](O)C1CC1)CCC3` [Compound 11-2, (S)-2-cyclopropyl-N-((1S,10S)-10-ethyl-6-fluoro-10-hydroxy-5-methyl-11,14-dioxo-1,2,3,4,10,11,14,16-octahydro-13H-cyclohepta[de]pyrano[3′,4′:6,7]indolizino[1,2-b]quinolin-1-yl)-2-hydroxyacetamide] here?
Answer: 2.4 nM

Question: And the IC50 (MDA-MB-468)?
Answer: 4.5 nM

Question: And the IC50 (NCI-N87)?
Answer: 2.3 nM

Question: And the AUC(0-inf) [1]?
Answer: 465 ng·h/mL

Question: And the AUC(0-t) [1]?
Answer: 460 ng·h/mL

Question: And the C0 [1]?
Answer: 848 ng/mL

Question: What about the Vd [1] of the same compound?
Answer: 3.01 L/kg

Question: What about the clearance [1] of the same compound?
Answer: 72.7 mL/min/kg

Question: What about the half-life [1] of the same compound?
Answer: 37.8 min

Question: And the IC50 (CYP1A2)?
Answer: > 30 µM

Question: And the IC50 (CYP2D6)?
Answer: > 30 µM
